Reference: article PMC5352776, “Neutron activation increases activity of ruthenium-based complexes and induces cell death in glioma cells independent of p53 tumor suppressor gene” (Biometals, 2017)

Tests used:
[1] = test system: MRC5 (Human Fetal Lung Fibroblast); assay: MTT cytotoxic activity assay, MRC5 normal cells; format: cell-based; conditions: 24 h exposure
Description: (§1) Malignant human Glioblastoma tumor cell lines U87 (p53 wild-type), T98 (p53 mutant) and normal cells MRC5 (Human Fetal Lung Fibroblast) were obtained from the American Type Culture Collection (ATCC, USA). The cells were maintained in Dulbecco’s Modified Eagle’s Medium (DMEM, Gibco), supplemented with 10% fetal bovine serum (FBS-Cultilab) and antibiotics (50 U/ml penicillin, […] streptomycin), at 37 °C in a humidified 5% CO2 atmosphere. For all experiments, cells were seeded at appropriate concentrations to ensure exponential growth.
(§2) The cytotoxicity of ruthenium(II) compounds was determined by measuring mitochondrial activity as a indicator of cell viability dependent on the reduction of MTT 3-(4,5-dimethylthiazol-2-yl)-2,5-diphenyl tetrazolium bromide to formazan (Mosmann [1983]). Cells (1.5 × 10^3/well) were seeded in 200 μl complete medium into 96-well microplates in triplicates. The plates were incubated at 37 °C in 5% CO2 for 24 h to allow cell adhesion, prior to drug testing. All radioactive or non-radioactive tested compounds were dissolved in sterile DMSO and diluted to reach final concentrations ranging from 1 × 10^−10 to 1 × 10^−4 mol l^−1. Cells were exposed to the compounds for a 24 h period and then, 0.5 mg ml^−1 of MTT solution was added to each well and further incubated for 4 h. The precipitated formazan crystals were dissolved in DMSO and the absorbance of produced color measured spectrophotometrically at 570 nm. The results were expressed as % viability of non-treated cell (control) versus drug concentration and the concentration that reduces cell viability by 50% (IC50) was calculated.

[2] = test system: T98 (p53 mutant) glioblastoma cells; assay: MTT cytotoxic activity assay, T98 cells; format: cell-based, human; conditions: for Selectivity index T98: SI = IC50 MRC5/IC50 tumor cell; for IC50: 24 h exposure, MTT
Description: as §1, §2

[3] = test system: U87 (p53 wild-type) glioblastoma cells; assay: MTT cytotoxic activity assay, U87 cells; format: cell-based, human; conditions: for Selectivity index U87: SI = IC50 MRC5/IC50 tumor cell; for IC50: 24 h exposure, MTT
Description: as §1, §2

[4] = Radioactive (neutron activated form)
[5] = non-radioactive compounds, listed as [Ru(pic)(bipy)(dppp)]PF6
[6] = radioactive (neutron activated) compounds
[7] = non-radioactive compounds, listed as [Ru(pic)(bipy)(dppf)]PF6

Compound | IC50 ([1]; non-radioactive compounds) [nM] | Selectivity index T98 ([2]; Non-radioactive) | Selectivity index T98 [2, 4] | IC50 ([2]; non-radioactive compounds) [nM] | IC50 [2, 5] [nM] | Selectivity index U87 ([3]; Non-radioactive) | Selectivity index U87 [3, 4] | IC50 ([3]; non-radioactive compounds) [nM] | IC50 [3, 5] [nM] | IC50 [1, 6] [nM] | IC50 [2, 6] [nM] | IC50 [3, 6] [nM] | IC50 [2, 7] [nM] | IC50 [3, 7] [nM]
F[P-](F)(F)(F)(F)F.O=C([O-])c1ccccn1.[Ru+2].c1ccc(-c2ccccn2)nc1.c1ccc(P(CCCP(c2ccccc2)c2ccccc2)c2ccccc2)cc1 [[Ru(pic)(bipy)(dppp)]PF6 (4), [Ru(pic)(bipy)(dppp)]PF6] | 1470 ± 600 | 0.98 | 0.76 | 1500 ± 500 | 1490 ± 500 | 0.29 | 1.52 | 4900 ± 2500 | 4920 ± 2460 | – | – | – | – | –
F[P-](F)(F)(F)(F)F.O=C([O-])c1ccccn1.[Ru+2].c1ccc(-c2ccccn2)nc1.c1ccc(P(CCCCP(c2ccccc2)c2ccccc2)c2ccccc2)cc1 [[Ru(pic)(bipy)(dppb)]PF6 (1), [Ru(pic)(bipy)(dppb)]PF6] | 41000 ± 10100 | 3.45 | 1.14 | 11900 ± 5900 | – | 2.55 | 1.63 | 16100 ± 3300 | – | – | – | – | – | –
[^103Ru(pic)(bipy)(dppe)]PF6 [[^103Ru(pic)(bipy)(dppe)]PF6 (2)] | – | – | – | – | – | – | – | – | – | 0.2 | 0.52 | 0.23 | – | –
F[P-](F)(F)(F)(F)F.O=C([O-])c1ccccn1.[Fe+2].[Ru+2].c1ccc(-c2ccccn2)nc1.c1ccc(P(c2ccccc2)[c-]2cccc2)cc1.c1ccc(P(c2ccccc2)[c-]2cccc2)cc1 [[Ru(pic)(bipy)(dppf)]PF6 (3), [Ru(pic)(bipy)(dppf)]PF6] | 8900 ± 2300 | 2.91 | 0.70 | 3000 ± 700 | – | 2.23 | 0.90 | 4000 ± 8500 | – | – | – | – | 3050 ± 720 | 3980 ± 850
[^103Ru(pic)(bipy)(dppb)]PF6 [[^103Ru(pic)(bipy)(dppb)]PF6 (1)] | – | – | – | – | – | – | – | – | – | 0.39 | 0.34 | 0.24 | – | –
F[P-](F)(F)(F)(F)F.O=C([O-])c1ccccn1.[Ru+2].c1ccc(-c2ccccn2)nc1.c1ccc(P(CCP(c2ccccc2)c2ccccc2)c2ccccc2)cc1 [[Ru(pic)(bipy)(dppe)]PF6 (2), [Ru(pic)(bipy)(dppe)]PF6] | 82100 ± 9100 | 4.32 | 0.39 | 19000 ± 5900 | – | 2.95 | 0.87 | 27800 ± 11700 | – | – | – | – | – | –
N.N.[Cl][Pt][Cl] [Cisplatin, reference compound] | 5050 ± 700 | 0.95 | – | 5300 ± 1900 | – | 2.87 | – | 1800 ± 200 | – | – | – | – | – | –
[^103Ru(pic)(bipy)(dppf)]PF6 [[^103Ru(pic)(bipy)(dppf)]PF6 (3)] | – | – | – | – | – | – | – | – | – | 0.38 | 0.54 | 0.42 | – | –
[^103Ru(pic)(bipy)(dppp)]PF6 [[^103Ru(pic)(bipy)(dppp)]PF6 (4)] | – | – | – | – | – | – | – | – | – | 0.47 | 0.62 | 0.31 | – | –
